Activity calls are given as the source filed them. No cut-off for these calls is given here.

Among the data in ChEMBL document CHEMBL5338707, “Design, synthesis and bioactivity evaluation of favorable evodiamine derivative scaffold for developing cancer therapy” (Eur J Med Chem, 2022) are Activity, inhibition in vivo and viability values, retold here.

A short description of series [1]: Acute toxicity in Kunming mouse assessed as animal death at 300 mg/kg, ip administered for 14 days. Format: organism-based. The following applies: in vivo, 336 h, time 14 day.
Series [2] in a line: Acute toxicity in Kunming mouse assessed as effect on lung at 300 mg/kg, ip administered for 14 days by H&E staining based analysis. Format: organism-based. To be noted: in vivo, 336 h, time 14 day.
For series [3], the system named is MGC-803. The series can be described thus: Antitumor activity against human MGC-803 cells xenografted in BALB/C mouse assessed as tumor growth inhibition at 35 mg/kg, ip administered once a day for 17 days relative to control. To be noted: MGC-803, 408 h, time 17 day, read-out: TGI. Format: functional. A general note: A xenograft is tissue or cells of one species grown in another, often human tumour cells in immunodeficient mice.

A short description of series [4]: Toxicity in BALB/C mouse xenografted with human MGC-803 cells assessed as decrease in body weight at 35 mg/kg, ip administered once daily for 17 days. Format: organism-based. The following applies: in vivo, 408 h, time 17 day.
Series [5] in a line: Acute toxicity in Kunming mouse assessed as effect on heart at 300 mg/kg, ip administered for 14 days by H&E staining based analysis. The following applies: in vivo, 336 h, time 14 day. Format: organism-based.
Series [6] in a line: Acute toxicity in Kunming mouse assessed as effect on liver at 300 mg/kg, ip administered for 14 days by H&E staining based analysis. Format: organism-based. To be noted: in vivo, 336 h, time 14 day.
The nature of series [7]: Acute toxicity in Kunming mouse assessed as effect on spleen at 300 mg/kg, ip administered for 14 days by H&E staining based analysis. Format: organism-based. To be noted: in vivo, 336 h, time 14 day.
For series [8], the system named is MGC-803. The series can be described thus: Antimigratory activity against human MGC-803 cells assessed as reduction in migration ability at 3 to 48 nM incubated for 24 hrs by transwell migration assay. Format: functional, cell-based. To be noted: dose 3-48 nM.
The nature of series [9]: Acute toxicity in Kunming mouse assessed as effect on kidney at 300 mg/kg, ip administered for 14 days by H&E staining based analysis. Format: organism-based. To be noted: in vivo, 336 h, time 14 day.
Series [10] concerns SGC-7901. The series can be described thus: Induction of apoptosis in human SGC-7901 cells assessed as early apoptotic cells at 12 nM incubated for 24 hrs by AnnexinV-FITC/PI staining based flow cytometric analysis (reference value: 0.47%). Format: functional.
Series [11] relates to MGC-803. In words: Induction of apoptosis in human MGC-803 cells assessed as viable cells at 96 nM incubated for 24 hrs by AnnexinV-FITC/PI staining based flow cytometric analysis (reference value: 98.59%). Format: functional. To be noted: read-out: Activity.
Series [12] relates to MGC-803. In words: Induction of apoptosis in human MGC-803 cells assessed as late apoptotic cells at 12 nM incubated for 24 hrs by AnnexinV-FITC/PI staining based flow cytometric analysis (reference value: 0.52%). Format: functional. In general terms: Flow cytometry measures light scatter and fluorescence of single cells or particles in a stream.
Series [13] concerns SGC-7901. In words: Induction of apoptosis in human SGC-7901 cells assessed as early apoptotic cells at 96 nM incubated for 24 hrs by AnnexinV-FITC/PI staining based flow cytometric analysis (reference value: 0.47%). Format: functional.
In series [14] the test system is MGC-803. In words: Cell cycle arrest in human MGC-803 cells assessed as accumulation of cells at S phase at 3 nM incubated for 24 hrs by PI staining based flow cytometric analysis (Rvb =7.84%). Format: functional.
In series [15] the test system is SGC-7901. The series can be described thus: Antiproliferative activity against human SGC-7901 cells assessed as inhibition of colony formation at >= 16 nM incubated for 1 to 2 weeks by crystal violet staining based analysis. Format: functional, cell-based. The following applies: time 1-2 weeks.
Series [16] relates to MGC-803. In words: Antiproliferative activity against human MGC-803 cells assessed as inhibition of colony formation at >= 16 nM incubated for 1 to 2 weeks by crystal violet staining based analysis. Format: functional, cell-based. To be noted: time 1-2 weeks.

Consider `CC(=O)Oc1ccc2[nH]c3c(c2c1)CCN1C(=O)c2cc(F)ccc2N(c2cccc(F)c2)C31` (configuration not stated), for which the Activity result in series [1], in series [2], in series [4], in series [5], in series [6] and in [7] was “Non-Toxic” throughout. Besides, the Activity entry in [9] is reported as “Non-Toxic”; in the series with SGC-7901 [10], 1.55%; in the series with MGC-803 [12], 13.03%; with SGC-7901 [13], 4.17%; with MGC-803 [14] it was 7.79%. In the series on MGC-803 [3], the inhibition in vivo at 35 mg/kg was 36.4%. Also, the outcome with MGC-803 [8] was Active. For the same molecule, in the series with MGC-803 [11], the viability at 0.096 µM was 60%.
In the case of `O=C1c2cc(F)ccc2N(c2cccc(F)c2)C2c3[nH]c4ccc(O)cc4c3CCN12` (configuration not stated), the result in the series with SGC-7901 [15], in the series with MGC-803 [8] and in the series on MGC-803 [16] was Active. For the same molecule, the Activity in the series with SGC-7901 [10] was 0.48%; in the series on MGC-803 [12], 6.48%; in the series on SGC-7901 [13], 1.8%; with MGC-803 [14], 7.46%. In addition, in the series on MGC-803 [11], the viability at 0.096 µM was determined as 74.4%.
